In patent US20210161868A1, “ANTI-INFLAMMATORY THERAPY IN ARRHYTHMOGENIC CARDIOMYOPATHY (ACM)” (Beth Israel Deaconess Medical Center, Inc., priority 2018, published 2021):

Test system: hearts of Dsg2^mut/mut mice
Experiment: Cytokine arrays in mouse hearts
Type: in vivo
Description: Three cohorts of mice at 8 weeks of age were anesthetized and implanted with subcutaneous osmotic mini-pumps (Alzet, Model 1004). These included: 1) Dsg2^mut/mut mice with pumps containing 50 μg/μL Bay11-7082 in a vehicle of 65% DMSO, 15% ethanol, and 20% saline; 2) Dsg2^mut/mut mice with pumps containing an equivalent volume of vehicle; and 3) wildtype mice with pumps containing vehicle. Mice in cohort 1 received 5 mg/kg/day of Bay11-7082 by continuous infusion; those in cohorts 2 and 3 received an equivalent volume of vehicle each day for 4 weeks. At 12 weeks of age, mice were re-anesthetized and new Alzet pumps were implanted for an additional 4 weeks of treatment.
Myocardium from mice was lyzed in RIPA buffer and cardiac myocytes from patient hiPSCs were lysed in TRIzol, and protein in lysates was quantified by standard BCA protein assay. Mouse (R&D Systems, Cat. No. ARY028) and Human (R&D Systems, Cat. No. ARY022B) Proteome Profiler XL Cytokine Arrays were blocked at room temperature for 1 hour before being incubated overnight at 4° C. with 200 μg of myocardial protein in blocking buffer supplied by manufacturer. Additional arrays were incubated overnight at 4° C. with 200 μl of hiPSC-cardiac myocyte culture medium according to the manufacturer's protocol for cell supernatants. Following overnight incubation, arrays were washed four times (10 minutes/wash), incubated at room temperature for 1 hour with Antibody Detection Cocktail, washed an additional four times (10 minutes/wash), then incubated with 1:2,000 Streptavidin-HRP in blocking buffer for 30 minutes at room temperature. Arrays were then washed four times and chemiluminescence was performed using the Chemi Reagent Mix included in the assay kits.
Data are presented as mean±SEM. Specific n-values are inset within each figure legend or table. P<0.05 was deemed statistically significant. As appropriate, associations between continuous dependent variables were tested using Student's paired/unpaired t-tests (binary independent variables) or one-way ANOVA (two or more variables). In the in vivo studies involving Dsg2^mut/mut mice, correlations between (i) ejection fraction and the amounts of myocardial fibrosis and apoptosis, (ii) cytokine expression levels and ejection fraction, and (iii) the levels of each individual cytokine against all other cytokines were made using Pearson's r analysis. Changes in cytokine levels in WT vs. Dsg2^mut/mut and/or untreated vs. Bay 11-7082-treated Dsg2^mut/mut mice were analyzed by two-way ANOVA with Tukey's post-hoc testing. The levels of any cytokines showing a significant change were then correlated with ejection fraction in each animal using Pearson's r analysis. In addition, the levels of all cytokines (n=111) were analyzed in a Pearson's correlation matrix table to correlate the expression level of each individual cytokine with all other cytokines.

[1] = Dsg2^mut/mut (Bay11-7082) vs Dsg2^mut/mut
[2] = Dsg2^mut/mut (Bay11-7082) vs WT
[3] = Dsg2^mut/mut mice with pumps containing 50 μg/μL Bay11-7082

Cc1ccc(S(=O)(=O)/C=C/C#N)cc1 [Bay 11-7082]
Adiponectin expression [1]: <1 | Amphiregulin expression [1]: <1 | Angiopoietin-1 expression [1]: <1 | Angiopoietin-2 expression [1]: 1-2 | Angiopoietin-like 3 expression [1]: <1 | BAFF/BLyS/TNFSF13B expression [1]: <1 | C1qR1/CD93 expression [1]: <1 | C-Reactive Protein/CRP expression [1]: <1 | CCL2/JE/MCP-1 expression [1]: <1 | CCL3/CCL4/MIP-1a/B expression [1]: <1 | CCL5/RANTES expression [1]: <1 | CCL6/C10 expression [1]: <1 | CCL17/TARC expression [1]: <1 | CCL19/MIP-3B expression [1]: <1 | CCL20/MIP-3a expression [1]: <1 | CCL21/6Ckine expression [1]: <1 | CCL22/MDC expression [1]: <1 | CD14 expression [1]: 1-2 | CD40/TNFRSF5 expression [1]: <1 | CD160 expression [1]: <1 | CX3CL1/Fractalkine expression [1]: <1 | CXCL9/MIG expression [1]: <1 | CXCL13/BLC/BCA-1 expression [1]: <1 | CXCL16 expression [1]: <1 | Chemerin expression [1]: <1 | Chitinase 3-like 1 expression [1]: <1 | Coagulation Factor III/Tissue Factor expression [1]: <1 | Complement Component C5/C5a expression [1]: <1 | Complement Factor D expression [1]: <1 | Cystatin C expression [1]: <1 | DKK-1 expression [1]: <1 | DPPIV/CD26 expression [1]: <1 | E-Selectin/CD62E expression [1]: <1 | EGF expression [1]: <1 | Endoglin/CD105 expression [1]: <1 | Endostatin expression [1]: <1 | Eotaxin (CCL11) expression [1]: <1 | FGF acidic expression [1]: <1 | FGF-21 expression [1]: <1 | FLt-3 Ligand expression [1]: <1 | Fetuin A/AHSG expression [1]: <1 | G-CSF expression [1]: <1 | GDF-15 expression [1]: <1 | GM-CSF expression [1]: <1 | Gas 6 expression [1]: <1 | HGF expression [1]: <1 | I-TAC (Cxcl11) expression [1]: <1 | IFN-y expression [1]: <1 | IGFBP-1 expression [1]: <1 | IGFBP-2 expression [1]: <1 | IGFBP-3 expression [1]: <1 | IGFBP-5 expression [1]: <1 | IGFBP-6 expression [1]: <1 | IL-1a (IL-1F1) expression [1]: <1 | IL-1ra (IL-1F3) expression [1]: <1 | IL-1β (IL-1F2) expression [1]: <1 | IL-2 expression [1]: <1 | IL-3 expression [1]: <1 | IL-4 expression [1]: <1 | IL-5 expression [1]: <1 | IL-6 expression [1]: <1 | IL-7 expression [1]: <1 | IL-10 expression [1]: <1 | IL-11 expression [1]: <1 | IL-12 p40 expression [1]: <1 | IL-13 expression [1]: <1 | IL-15 expression [1]: <1 | IL-17a expression [1]: <1 | IL-22 expression [1]: <1 | IL-23 expression [1]: <1 | IL-27 p28 expression [1]: <1 | IL-28A/B expression [1]: <1 | IL-33 expression [1]: <1 | IP-10 (CXL10/CRG-2) expression [1]: <1 | KC (CXCL1) expression [1]: <1 | LDL R expression [1]: 1-2 | LIF expression [1]: <1 | LIX expression [1]: <1 | Leptin expression [1]: <1 | Lipocalin-2/NGAL expression [1]: <1 | M-CSF expression [1]: 1-2 | MCP-5 (CCL12) expression [1]: <1 | MIP-2 (CXCL2) expression [1]: <1 | MMP-2 expression [1]: 1-2 | MMP-3 expression [1]: 1-2 | MMP-9 expression [1]: <1 | Myeloperoxidase expression [1]: <1 | Osteopontin (OPN) expression [1]: <1 | Osteoprotegerin/TNFRSF11B expression [1]: <1 | P-Selectin/CD62P expression [1]: <1 | PD-EGF/Thymidine phosphorylase expression [1]: <1 | PDGF-BB expression [1]: <1 | Pentraxin 2/SAP expression [1]: <1 | Pentraxin 3/TSG-14 expression [1]: <1 | Periostin/OSF-2 expression [1]: <1 | Pref-1/DLK-1/FA1 expression [1]: <1 | Proliferin expression [1]: <1 | Proprotein Convertase 9/PCSK9 expression [1]: 1-2 | RAGE expression [1]: <1 | RBP4 expression [1]: <1 | Reg3G expression [1]: <1 | Resistin expression [1]: <1 | Serpin E1/PAI-1 expression [1]: <1 | Serpin F1/PEDF expression [1]: <1 | TIM-1/KIM-1/HAVCR expression [1]: 1-2 | TNF-α expression [1]: <1 | Thrombopoeitin expression [1]: 1-2 | VCAM-1/CD106 expression [1]: 1-2 | VEGF expression [1]: 1-2 | WISP-1/CCN4 expression [1]: <1 | sICAM-1 (CD54) expression [1]: <1 | Adiponectin expression [2]: <1 | Amphiregulin expression [2]: <1 | Angiopoietin-1 expression [2]: <1 | Angiopoietin-2 expression [2]: <1 | Angiopoietin-like 3 expression [2]: <1 | BAFF/BLyS/TNFSF13B expression [2]: <1 | C1qR1/CD93 expression [2]: <1 | C-Reactive Protein/CRP expression [2]: <1 | CCL2/JE/MCP-1 expression [2]: <1 | CCL3/CCL4/MIP-1a/B expression [2]: <1 | CCL5/RANTES expression [2]: <1 | CCL6/C10 expression [2]: <1 | CCL17/TARC expression [2]: <1 | CCL19/MIP-3B expression [2]: <1 | CCL20/MIP-3a expression [2]: <1 | CCL21/6Ckine expression [2]: <1 | CCL22/MDC expression [2]: <1 | CD14 expression [2]: <1 | CD40/TNFRSF5 expression [2]: <1 | CD160 expression [2]: <1 | CX3CL1/Fractalkine expression [2]: <1 | CXCL9/MIG expression [2]: <1 | CXCL13/BLC/BCA-1 expression [2]: 2-4 | CXCL16 expression [2]: <1 | Chemerin expression [2]: <1 | Chitinase 3-like 1 expression [2]: <1 | Coagulation Factor III/Tissue Factor expression [2]: <1 | Complement Component C5/C5a expression [2]: <1 | Complement Factor D expression [2]: <1 | Cystatin C expression [2]: <1 | DKK-1 expression [2]: <1 | DPPIV/CD26 expression [2]: 1-2 | E-Selectin/CD62E expression [2]: <1 | EGF expression [2]: 1-2 | Endoglin/CD105 expression [2]: <1 | Endostatin expression [2]: <1 | Eotaxin (CCL11) expression [2]: <1 | FGF acidic expression [2]: <1 | FGF-21 expression [2]: <1 | FLt-3 Ligand expression [2]: <1 | Fetuin A/AHSG expression [2]: <1 | G-CSF expression [2]: 1-2 | GDF-15 expression [2]: <1 | GM-CSF expression [2]: <1 | Gas 6 expression [2]: <1 | HGF expression [2]: 4-6 | I-TAC (Cxcl11) expression [2]: <1 | IFN-y expression [2]: 1-2 | IGFBP-1 expression [2]: 1-2 | IGFBP-2 expression [2]: <1 | IGFBP-3 expression [2]: <1 | IGFBP-5 expression [2]: <1 | IGFBP-6 expression [2]: <1 | IL-1a (IL-1F1) expression [2]: <1 | IL-1ra (IL-1F3) expression [2]: 1-2 | IL-1β (IL-1F2) expression [2]: 6-10 | IL-2 expression [2]: <1 | IL-3 expression [2]: <1 | IL-4 expression [2]: <1 | IL-5 expression [2]: <1 | IL-6 expression [2]: <1 | IL-7 expression [2]: <1 | IL-10 expression [2]: <1 | IL-11 expression [2]: <1 | IL-12 p40 expression [2]: 1-2 | IL-13 expression [2]: 1-2 | IL-15 expression [2]: 2-4 | IL-17a expression [2]: <1 | IL-22 expression [2]: <1 | IL-23 expression [2]: <1 | IL-27 p28 expression [2]: <1 | IL-28A/B expression [2]: 1-2 | IL-33 expression [2]: 2-4 | IP-10 (CXL10/CRG-2) expression [2]: <1 | KC (CXCL1) expression [2]: <1 | LDL R expression [2]: 1-2 | LIF expression [2]: <1 | LIX expression [2]: >10 | Leptin expression [2]: 1-2 | Lipocalin-2/NGAL expression [2]: <1 | M-CSF expression [2]: >20 | MCP-5 (CCL12) expression [2]: <1 | MIP-2 (CXCL2) expression [2]: <1 | MMP-2 expression [2]: 4-6 | MMP-3 expression [2]: <1 | MMP-9 expression [2]: <1 | Myeloperoxidase expression [2]: 2-4 | Osteopontin (OPN) expression [2]: 4-6 | Osteoprotegerin/TNFRSF11B expression [2]: <1 | P-Selectin/CD62P expression [2]: >10 | PD-EGF/Thymidine phosphorylase expression [2]: <1 | PDGF-BB expression [2]: 1-2 | Pentraxin 2/SAP expression [2]: 1-2 | Pentraxin 3/TSG-14 expression [2]: <1 | Periostin/OSF-2 expression [2]: <1 | Pref-1/DLK-1/FA1 expression [2]: 6-10 | Proliferin expression [2]: 6-10 | Proprotein Convertase 9/PCSK9 expression [2]: <1 | RAGE expression [2]: <1 | RBP4 expression [2]: 1-2 | Reg3G expression [2]: 6-10 | Resistin expression [2]: 2-4 | Serpin E1/PAI-1 expression [2]: 6-10 | Serpin F1/PEDF expression [2]: <1 | TIM-1/KIM-1/HAVCR expression [2]: <1 | TNF-α expression [2]: 1-2 | Thrombopoeitin expression [2]: <1 | VCAM-1/CD106 expression [2]: 6-10 | VEGF expression [2]: <1 | WISP-1/CCN4 expression [2]: <1 | sICAM-1 (CD54) expression [2]: 1-2 | LIX (CXCL5) level [3]: markedly reduced | OPN expression [3]: reduced | increased expression of cytokines in Dsg2^mut/mut hearts (in most, but not all, cases): blunted or fully normalized
